Results from US20240384250A1, “FIBROBLAST GROWTH FACTOR 23 MODULATING COMPOUNDS” (THE UAB RESEARCH FOUNDATION, priority 2021, published 2024).

What was measured:
Assay in all cases: Surface plasmon resonance, heparin immobilized on chip
Assay type in all cases: binding
Conditions in all cases: SPR
FGF23 = molecular target: T1, FGF23 (Homo sapiens, UniProt Q9GZV9, R179Q)
T1 construct: purchased R&D Systems 2604FG025/CF
T1 sequence (Q9GZV9 25-251 R179Q): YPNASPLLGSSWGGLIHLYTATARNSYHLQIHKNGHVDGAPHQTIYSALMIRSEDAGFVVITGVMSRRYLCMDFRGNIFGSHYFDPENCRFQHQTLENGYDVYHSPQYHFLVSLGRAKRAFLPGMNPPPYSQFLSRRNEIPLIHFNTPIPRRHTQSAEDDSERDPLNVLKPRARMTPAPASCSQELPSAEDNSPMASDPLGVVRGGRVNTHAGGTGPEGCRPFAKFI
Procedure: (§1) For the direct quantitative analysis of label-free molecular interactions in real time, surface plasmon resonance studies were conducted using BIAcore T200 and T200 evaluation software (28975001, Cytiva). Sensor SA (BR100398) and CMS chips (BR100399) were from Cytiva. For the preparation of heparin chips, heparin (2 mg) and amine-PEG3-Biotin (2 mg, 21347, Pierce) were dissolved in 200 μl of H2O and 10 mg of NaCNBH3 was added. The reaction mixture was heated at 70° C. for 24 hours; an additional 10 mg of NaCNBH3 was added; and the reaction was heated at 70° C. for another 24 hours. After cooling to room temperature, the mixture was desalted with the spin column (3000 MWCO). Biotinylated heparin was collected, freeze dried, and used for chip preparation. Biotinylated heparin was immobilized to streptavidin chips according to the manufacturer's protocol. In brief, 20 μl of biotinylated heparin solution (0.1 mg/ml) in HBS-P running buffer (0.01 M N-2-hydroxyethylpiperazine-N′-2-ethanesulfonic acid, 0.15 M NaCl, 0.005% surfactant P20 [pH7.4]; BR100368, Cytiva) was injected over flow cell 2 of the streptavidin chip at a flow rate of 10 μl/min. The successful immobilization of heparin was confirmed by the observation of an approximately 200-resonance unit increase in the sensor chip. The control flow cell (flow cell 1) was prepared by 1-minute injection with saturated biotin. For the preparation of FGFR4 chips, Fc-FGFR4 protein (human ectodomain) was immobilized on research grade CMS chips according to the standard amine coupling protocol. Briefly, carboxymethyl groups on the CMS chip surface were first activated using an injection pulse of […] of an equimolar mix of N-ethyl-N-(dimethylaminopropyl) carbodiimide and N-hydroxysuccinimide (final concentration 0.05 M, mixed immediately before injection). After activation, FGFR4 was diluted to […] in 100 mM sodium acetate (pH 5.5) buffer and injected over the activated biosensor surface. Excess unreacted sites on the sensor surface were deactivated with a 35 μl injection of 1 M ethanolamine. A reference flow cell was prepared using an injection pulse of […] of an equimolar mix of N-ethyl-N-(dimethylaminopropyl) carbodiimide and N-hydroxysuccinimide (final concentration 0.05 M, mixed immediately before injection) followed by a 35 μl injection of 1 M ethanolamine. For the measurement of interactions between FGF23 (human protein), FGFR4 (human ectodomain protein), klotho (human ectodomain, self-made; see above), and heparin, samples were diluted in HBS-P buffer. Different dilutions of protein were injected at a flow rate of 30 μl/min with HBS-P buffer as running buffer. At the end of the sample injection, HBS-P buffer was flowed over the sensor surface to facilitate dissociation. After a 3-minute dissociation time, the sensor surface was regenerated by injecting with 30 μl of 2 M NaCl to get a fully regenerated surface. The response was monitored as a function of time (sensorgram) at 25° C.

FGFR4 = molecular target: T2, FGFR4 (Homo sapiens, UniProt P22455)
T2 construct: Fc-FGFR4 protein (human ectodomain) was immobilized; purchased R&D Systems 685FR050
T2 sequence (P22455 22-369 limits assumed): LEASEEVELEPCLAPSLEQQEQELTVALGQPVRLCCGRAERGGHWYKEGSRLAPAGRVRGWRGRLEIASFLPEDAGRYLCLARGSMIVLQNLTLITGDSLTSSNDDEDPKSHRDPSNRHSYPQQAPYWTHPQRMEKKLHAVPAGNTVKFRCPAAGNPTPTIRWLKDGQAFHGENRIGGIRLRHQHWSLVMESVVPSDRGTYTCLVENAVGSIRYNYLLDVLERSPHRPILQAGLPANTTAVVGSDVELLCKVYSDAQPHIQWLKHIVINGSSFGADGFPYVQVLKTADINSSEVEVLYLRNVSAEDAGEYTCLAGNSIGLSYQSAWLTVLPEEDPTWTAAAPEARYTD
Procedure: as §1

klotho = molecular target: T3, klotho (Homo sapiens, UniProt Q9UEF7)
T3 construct: The sKL recombinant protein produced is mouse aa 35-982 and human aa 34-981; made in house; host or cells: Expi293 (HEK293) cells, stably transfected
T3 sequence (Q9UEF7 34-981): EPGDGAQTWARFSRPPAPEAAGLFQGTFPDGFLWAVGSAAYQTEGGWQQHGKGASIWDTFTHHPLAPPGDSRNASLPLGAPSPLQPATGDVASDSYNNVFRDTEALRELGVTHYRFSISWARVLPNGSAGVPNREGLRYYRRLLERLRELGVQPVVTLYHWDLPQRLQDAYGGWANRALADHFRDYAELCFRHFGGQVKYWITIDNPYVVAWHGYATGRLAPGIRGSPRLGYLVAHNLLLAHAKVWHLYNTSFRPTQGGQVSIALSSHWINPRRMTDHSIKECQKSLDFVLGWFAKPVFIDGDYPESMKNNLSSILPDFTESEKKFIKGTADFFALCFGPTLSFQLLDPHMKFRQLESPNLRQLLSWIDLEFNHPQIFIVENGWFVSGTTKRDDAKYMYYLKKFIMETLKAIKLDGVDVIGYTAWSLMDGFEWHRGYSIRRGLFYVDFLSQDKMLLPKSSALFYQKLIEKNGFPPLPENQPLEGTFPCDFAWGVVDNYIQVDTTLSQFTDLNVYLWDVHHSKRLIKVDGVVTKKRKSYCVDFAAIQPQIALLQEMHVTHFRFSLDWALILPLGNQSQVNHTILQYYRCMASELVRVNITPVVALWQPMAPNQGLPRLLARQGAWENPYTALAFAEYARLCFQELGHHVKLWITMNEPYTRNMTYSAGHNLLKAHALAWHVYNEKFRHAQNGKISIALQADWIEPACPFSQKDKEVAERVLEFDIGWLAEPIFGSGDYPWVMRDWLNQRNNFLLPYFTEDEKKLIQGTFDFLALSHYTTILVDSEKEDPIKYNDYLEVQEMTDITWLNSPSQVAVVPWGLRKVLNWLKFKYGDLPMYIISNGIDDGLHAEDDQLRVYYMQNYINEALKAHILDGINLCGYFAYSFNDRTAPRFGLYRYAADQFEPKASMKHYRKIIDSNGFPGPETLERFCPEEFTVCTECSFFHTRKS
Procedure: as §1

Question: heparin [reference compound] was tested. Which Kd (FGF23) did it give?
Answer: 7.6 nM

Question: What about the ka (FGF23; 25° C.) of the same substance?
Answer: 4.8 × 10^5 1/MS

Question: And the kd (FGF23; 25° C.)?
Answer: 3.6 × 10^−3 1/S

Question: And the ka (FGFR4; 25° C.)?
Answer: 1.2 × 10^6 1/MS

Question: What about the Kd (FGFR4; read-out: dissociation constant KD) of the same substance?
Answer: 2.8 nM

Question: What about the Kd (klotho) of the same substance?
Answer: 15 nM

Question: And the ka (klotho; 25° C.)?
Answer: 8.0 × 10^4 1/MS

Question: And the kd (klotho; 25° C.)?
Answer: 1.1 × 10^−3 1/S
